Source: PubChem BioAssay AID602236 (The Scripps Research Institute Molecular Screening Center, 2012)
Activity calls are given as the source filed them.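 How the source made its calls: active means IC50 of 10 µM or lower; inactive means IC50 above 10 µM.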

test system: HEK-293 Gal4-VP16 UAS luciferase reporter, luminescence; assay: GAL4-VP16 reporter repression curves – cell-based, luminescence, high throughput, SRC1 series, counter-screen for SRC1 inhibitor project, dose response (AID 602236);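 further: inhibitor potency where hits lower luciferase light from Gal4-VP16 transactivation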

SMILES	IC50
O=C1CCC2S/C(=C/Nc3ccc(C(F)(F)F)cc3)C(=O)N12 (configuration not stated)	> 35.9 µM (inactive)
O=C1NCCc2c1[nH]c1ccc([N+](=O)[O-])cc21	32 µM (inactive)
COc1ccc2[nH]c(=O)c(CN(CCN3CCCC3)C(=O)Nc3ccccc3Cl)cc2c1	23.8 µM (inactive)
COc1ccc(OC)c(/C=C2\NC(=O)NC2=O)c1	10.8 µM (inactive)
CCN(C(=O)c1cc(S(=O)(=O)N2CCCCC2)c[nH]1)c1ccc(OC)cc1	12.8 µM (inactive)
O=C(Nc1cccc2c1CCCC2)c1cc([N+](=O)[O-])ccc1Cl	9.3 µM
CCc1ccc(/C=C2\SC(=S)N(CCCC(=O)NCCCN3CCOCC3)C2=O)cc1	12.7 µM (inactive)
COc1ccc(Oc2nc3c(c(=O)n(C)c(=O)n3C)n2C)cc1	16.6 µM (inactive)
COC(=O)c1sc2cnccc2c1N	> 35.9 µM (inactive)
Cc1nc2c(-c3ccc(F)cc3)cnn2c(N)c1-c1ccccc1	14.5 µM (inactive)
Nc1ccc(Oc2ccccc2-c2ccccc2)cc1	19 µM (inactive)
O=C(COC(=O)c1ccc[nH]c1=O)Nc1ccc(N2CCCCC2)cc1	> 35.9 µM (inactive)
COc1ccc(-n2cnc3c(sc4nccc(N(C)C)c43)c2=O)cc1	14.2 µM (inactive)
O=[N+]([O-])c1ccc2c(c1)-c1ccccc1C2=NO	> 35.9 µM (inactive)
Cc1sc2ncnc(N3CCC(C(=O)N(C)CC(=O)Nc4cccc(F)c4)CC3)c2c1C	15 µM (inactive)
Cc1cc(C)nc(SCc2ccc(C(=O)N/N=C/c3cccc(O)c3O)cc2)n1	5.29 µM
C=CCNc1ncnc2ccc(Br)cc12	5.96 µM
O=C(CCC1CCCC1)Nc1ccc(C(=O)NCc2cccnc2)cc1	7.75 µM
c1cnc2ccc(-n3ccnc3)cc2c1	9.58 µM
N#Cc1c2ccc(O)cc2n2ccccc12	> 35.9 µM (inactive)
COc1ccc(Nc2ncnc3ccc(Br)cc23)c(OC)c1	15.9 µM (inactive)
CN(CC(=O)Nc1ccc(Cl)c(C(F)(F)F)c1)C(=O)C1CC(=O)N(c2ccc3c(c2)OCCO3)C1 (configuration not stated)	25.1 µM (inactive)
CC(C)(C)NC(=O)C1(C)CCC(=O)N1CCCn1ccnc1 (configuration not stated)	12.5 µM (inactive)
NNC(=O)c1cc2ccccc2cc1O	18.4 µM (inactive)

SMILES	IC50
CN(C)C(=O)c1cccc(COc2ccc(N3C(N)=NC(N)=NC3(C)C)cc2Cl)c1	> 35.8 µM (inactive)
COc1ccc2c(C#N)c3ccccn3c2c1	> 35.8 µM (inactive)
CCN(C(=O)c1cccc(S(=O)(=O)N(C)C)c1)C12CC3CC(CC(C3)C1)C2	15.7 µM (inactive)
CC(=O)c1cc2c(C)cc(=O)oc2cc1O	29 µM (inactive)
COc1ccc(CNc2ncc(-c3ccc(F)cc3)n2C)c2ccccc12	> 35.9 µM (inactive)
Cc1ccc(/C=C2\SC(=S)N(CCCC(=O)NC3CCCC3)C2=O)cc1	5.37 µM
Cc1cccc(C)c1-n1nnnc1C(c1cccs1)N1CCC2(CC1)C(=O)NCN2c1ccccc1 (configuration not stated)	14.4 µM (inactive)
Fc1cccc(CSc2nnc3ccc(-c4ccncc4)nn23)c1	> 35.8 µM (inactive)
C=CCc1ccccc1OCC(=O)N/N=C/c1ccc(OC(C)=O)cc1OC(C)=O	22.8 µM (inactive)
Cc1ccc(O)c(Nc2ncnc3ccc([N+](=O)[O-])cc23)c1	10.8 µM (inactive)
COc1cc2c3c([nH]c2cc1F)C(=O)NCC3	24.8 µM (inactive)
Nc1nc(CCl)nc(Nc2cccc3ccccc23)n1	11.1 µM (inactive)
CCN(CC(=O)Nc1ccc(NC(C)=O)cc1)C(=O)C1(c2ccc(Cl)cc2)CCC1	> 35.9 µM (inactive)
COc1cccc(C2=CC(=O)CC(C)(C)C2)c1	24 µM (inactive)
CN(Cc1cnc2nc(N)nc(N)c2n1)c1ccc(C(=O)NC(CCC(=O)O)C(=O)O)c2ccccc12 (configuration not stated)	> 35.9 µM (inactive)
COc1ccc(C(O)(C(C)C)C(CN2CCOCC2)c2ccc(Cl)cc2)cc1 (configuration not stated)	20 µM (inactive)
NC(=S)NN=Cc1ccc(OC(=O)COc2cc(Cl)c(Cl)cc2Cl)cn1	> 35.9 µM (inactive)
COc1cc(C(=O)N/N=C(\c2ccccc2)c2ccccn2)cc(OC)c1OC	8.61 µM
S=C(Nc1ccccc1)Nc1ccc(OCc2ccc(Cl)cc2Cl)cc1	6.69 µM
COc1ccccc1-c1cc2nc(-c3ccccc3)cc(N3CCN(C(=O)c4ccco4)CC3)n2n1	4.1 µM
CCCCC(CC)COCCCN=Cc1c(O)[nH]c(=S)[nH]c1=O (configuration not stated)	10.5 µM (inactive)
COc1ccc(-n2cnc(N)c2C(=O)c2cccc([N+](=O)[O-])c2)cc1	15.7 µM (inactive)
Cn1nc(C(F)(F)F)c(C#N)c1N1CCN(c2ccccc2)CC1	6.34 µM
O=C(CSc1nc(-c2cccs2)cc(C(F)(F)F)n1)Nc1cc(OCC(F)(F)C(F)F)cc([N+](=O)[O-])c1	21.9 µM (inactive)

SMILES	IC50
Cc1sc2ncnc(N3CCC(C(=O)Nc4cc(S(C)(=O)=O)ccc4Cl)CC3)c2c1C	20.7 µM (inactive)
Cc1nn(C(C)(C)C)c(C)c1/C=N/OC(=O)Nc1ccc(Cl)c(Cl)c1	13.9 µM (inactive)
COc1cc2c(cc1OC)C(NC(=O)C(F)(F)F)CNC2=O (configuration not stated)	10.8 µM (inactive)
O=c1ccc2c(ccc3ncccc32)o1	18.1 µM (inactive)
COc1ccccc1/C=C\C(=O)NCC(=O)N/N=C/c1cccc(OC)c1O	15.5 µM (inactive)
CC(=O)C1=C(C)NC2=C(C(=O)CC(C)(C)C2)C1C (configuration not stated)	13.1 µM (inactive)
COC(CN(C(=O)CCl)C(C(=O)NC1CCCCC1)c1ccccc1C)OC (configuration not stated)	8.47 µM
O=C(Nc1cccc(C(F)(F)F)c1)Nc1nnc([C@@H]2C[C@H](O)[C@@H](CO)O2)s1	7.89 µM
O=C(Nc1nc(-c2ccccn2)cs1)c1cccc(-n2cnnn2)c1	17 µM (inactive)
O=C(CCl)N1N=C(c2ccco2)CC1c1ccco1 (configuration not stated)	> 12 µM (inactive)
Cc1ccc2occ(/C=N/NC(=O)c3ccncc3)c(=O)c2c1	22.8 µM (inactive)
O=C(CCCOc1ccc(Cl)cc1Cl)N/N=C/c1ccccc1O	4.77 µM
CCCS(=O)(=O)Nc1ccc(Nc2c3ccccc3nc3ccccc23)c(OC)c1	> 35.9 µM (inactive)
Cc1nc2sc(C(N)=O)c(N)c2c(C)c1CC(=O)c1ccccc1	> 35.9 µM (inactive)
COc1ccc(NC(=O)CN(C)C(=O)C2(c3ccccc3)CCCC2)cc1	36.3 µM (inactive)
Cc1cccc(C)c1-c1ccc(CN2C(CC(C)C)C(=O)N(Cc3cn(CC4CCCCC4)nn3)CCS2(=O)=O)cc1 (configuration not stated)	16.6 µM (inactive)
O=C1CCC/C1=c1\s/c(=C/c2cccnc2)c(=O)n1-c1ccccc1	11.2 µM (inactive)
COc1ccccc1CNC(=O)C(=O)NCCC1CCCCN1S(=O)(=O)c1ccc(C)cc1 (configuration not stated)	23.1 µM (inactive)
Cc1nc2ccccn2c1-c1ccnc(=S)[nH]1	> 35.8 µM (inactive)
COc1ccccc1NS(=O)(=O)c1cccc(NC(=O)c2cncc(Br)c2)c1	12 µM (inactive)
Cc1ccc(N=c2c([N+](=O)[O-])nn(-c3ccc4c(c3)OCCO4)n2O)cc1F	27 µM (inactive)
Cc1ccc(/C=C2/SC(=S)N(CCCC(=O)Nc3ccc(O)cc3)C2=O)cc1	> 12 µM (inactive)
CCCCCCCC[n+]1c(C)n(-c2ccccc2)c2ccc(NC(C)=O)cc21	10.5 µM (inactive)
CCC(C)(C)n1nnnc1CN1CCC(n2c(C)nc3cc(C(F)(F)F)ccc32)CC1	> 35.9 µM (inactive)
